Structures can show the parent of a compound that is named as a salt.
Structure (SMILES)	melting point
COC1CCCCC1(O)C#Cc1nc(N)c2nc(-c3cccc(F)c3)n(C)c2n1 (centres unmarked) [Example 121, 1-{2-[6-Amino-8-(3-fluorophenyl)-9-methyl-9H-2-purinyl]-1-ethynyl}-2-methoxy-1-cyclohexanol]	195 to 197 °C
Cl.Nc1nc(C#CC2(O)CCCC2)nc2c1nc(-c1cc(F)ccc1F)n2C1CC1	230 to 232 °C
COC1CCCCC1(O)C#Cc1nc(N)c2nc(-c3cccc(F)c3)n(C)c2n1 (centres unmarked) [Example 120, 1-{2-[6-Amino-8-(3-fluorophenyl)-9-methyl-9H-2-purinyl}-1-ethynyl}-2-methoxy-1-cyclohexanol]	281 to 283 °C
Cl.Nc1nc(C#CC2(O)CCCCC2)nc2c1nc(-c1cccc(F)c1)n2C1CCCC1	196 to 200 °C
Cn1c(-c2cccc(F)c2F)nc2c(N)nc(C#CC3(O)CCC3)nc21 [Example 127, 1-{2-[6-Amino-8-(2,3-difluorophenyl)-9-methyl-9H-2-purinyl]-1-ethynyl}-1-cyclobutanol]	225 to 229 °C
Cl.Cn1c(-c2ccco2)nc2c(N)nc(C#CCCC3CCCCC3)nc21	165 to 169 °C
Cl.Cn1c(-c2ccco2)nc2c(N)nc(C#CCCO)nc21	161 to 164 °C
CN(C)c1ccc(-n2c(-c3cccc(F)c3)nc3c(N)nc(C#CC4(O)CCCCC4)nc32)cc1 (as salt: hydrochloride) [Example 3, 1-{2-[6-Amino-9-[4-(dimetylamino)phenyl]-8-(3-fluorophenyl)-9H-2-purinyl]-1-ethynyl}-1-cyclohexanol Dihydrochloride]	255 to 260 °C
CCn1c(-c2cc(F)ccc2F)nc2c(N)nc(C#CC3(O)CCCC3)nc21.Cl	191 to 194 °C
CC(C)C(O)C#Cc1nc(N)c2nc(-c3cccc(F)c3)n(C)c2n1.Cl (centres unmarked)	170 to 173 °C
Cl.Nc1nc(C#CC2(O)CCCC2)nc2c1nc(-c1cccc(F)c1)n2C1CC1	220 to 223 °C
CC(C)(O)C#Cc1nc(N)c2nc(-c3cc(F)ccc3F)n(C3CC3)c2n1.Cl	196 to 198 °C
Cn1c(-c2ccccc2F)nc2c(N)nc(C#CC3(O)CCC3)nc21 [Example 146, 1-{2-[6-Amino-8-(2-fluorophenyl)-9-methyl-9H-2-purinyl]-1-ethynyl}-1-cyclobutanol]	136 to 138 °C
CC(C)(O)C#Cc1nc(N)c2nc(-c3cccc(F)c3)n(C3CC3)c2n1.Cl	143 to 145 °C
Cl.Cn1c(-c2cccc(F)c2)nc2c(N)nc(/C=C/C(C)(C)O)nc21	> 290 °C
CCn1c(-c2cccc(F)c2)nc2c(N)nc(/C=C/C3(O)CCC3)nc21.Cl	178 to 180 °C
CCCn1c(-c2cccc(F)c2F)nc2c(N)nc(C#CC3(O)CCCC3)nc21.Cl	184 to 188 °C
Cn1c(-c2cccc(F)c2)nc2c(N)nc(C#CC3(O)C=CCC3)nc21 (centres unmarked) [Example 122, 1-{2-[6-Amino-8-(3-fluorophenyl)-9-methyl-9H-2-purinyl]-1-ethynyl}-2-cyclopenten-1-ol]	191 to 193 °C
CCC(O)C#Cc1nc(N)c2nc(-c3cccc(F)c3)n(C)c2n1.Cl (centres unmarked)	171 to 175 °C
Cl.Cn1c(-c2ccco2)nc2c(N)nc(C#CC3CCCCC3)nc21	155 to 160 °C
Cl.Cn1c(-c2ccco2)nc2c(N)nc(C#CC3(O)CCCC3)nc21	168 to 172 °C
Cl.Cn1c(-c2cccc(F)c2)nc2c(N)nc(C#CC3(O)CCC(c4ccccc4)CC3)nc21 (centres unmarked)	247 to 249 °C
Cn1c(-c2cc(F)cc(F)c2F)nc2c(N)nc(C#CC3(O)CCCC3)nc21 [Example 125, 1-{2-[6-Amino-9-methyl-8-(2,3,5-trifluorophenyl)-9H-2-purinyl]-1-ethynyl}-1-cyclopentanol]	214 to 217 °C
Cn1c(-c2ccccc2F)nc2c(N)nc(C#CC3(O)CCCC3)nc21 [Example 147, 1-{2-[6-Amino-8-(2-fluorophenyl)-9-methyl-9H-2-purinyl]-1-ethynyl}-1-cyclopentanol]	166 to 168 °C
Cl.Nc1nc(C#CC2(O)CCC2)nc2c1nc(-c1cc(F)ccc1F)n2C1CC1	161 to 164 °C

Results, then the molecule that gave them:

melting point	Structure (SMILES)
144 to 147 °C	CCCn1c(-c2cccc(F)c2)nc2c(N)nc(C#CC(O)(CC)CC)nc21.Cl
225 to 226 °C	CCCn1c(-c2cc(F)ccc2F)nc2c(N)nc(C#CC3(O)CCC3)nc21.Cl
217 to 218 °C	CCn1c(-c2cc(F)cc(F)c2)nc2c(N)nc(C#CC3(O)CCCC3)nc21.Cl
228 °C	Cl.Nc1nc(C#CC2(O)CCC2)nc2c1nc(-c1cc(F)cc(F)c1)n2C1CC1
213 to 215 °C	CCn1c(-c2cccc(F)c2F)nc2c(N)nc(C#CC(C)(C)O)nc21.Cl
163 to 166 °C	CCn1c(-c2cc(F)ccc2F)nc2c(N)nc(C#CC(O)(CC)CC)nc21.Cl
191 to 192 °C	CC(C)C(C)(O)C#Cc1nc(N)c2nc(-c3cccc(F)c3)n(C)c2n1.Cl (centres unmarked)
199 to 201 °C	CCC(O)(C#Cc1nc(N)c2nc(-c3ccccc3F)n(C)c2n1)CC [Example 149]
148 to 150 °C	CCCn1c(-c2cc(F)cc(F)c2)nc2c(N)nc(C#CC(C)(C)O)nc21.Cl
204 to 205 °C	CCn1c(-c2cc(F)cc(F)c2)nc2c(N)nc(C#CC(O)(CC)CC)nc21.Cl
150 to 153 °C	CCn1c(-c2cccc(F)c2)nc2c(N)nc(C#CC(O)(CC)CC)nc21.Cl
193 to 196 °C	CCn1c(-c2cccc(F)c2)nc2c(N)nc(C#CC(C)(C)O)nc21.Cl
183 to 184 °C	CCCn1c(-c2cc(F)cc(F)c2)nc2c(N)nc(C#CC(O)(CC)CC)nc21.Cl
237 to 238 °C	Cl.Cn1c(-c2cc(F)cc(F)c2)nc2c(N)nc(C#CC(C)(C)O)nc21
215 to 216 °C	CCC(O)(C#Cc1nc(N)c2nc(-c3cc(F)ccc3F)n(C3CC3)c2n1)CC.Cl
230 to 233 °C	CCCn1c(-c2cccc(F)c2F)nc2c(N)nc(C#CC(C)(C)O)nc21.Cl
193 to 194 °C	Cl.Cn1c(-c2cccc(F)c2)nc2c(N)nc(C#CC(C)(O)C(C)(C)C)nc21 (centres unmarked)
225 °C	CCC(O)(C#Cc1nc(N)c2nc(-c3cc(F)cc(F)c3)n(C3CC3)c2n1)CC.Cl
265 to 266 °C	Cl.Nc1nc(C#CC2(O)CCCC2)nc2c1nc(-c1cc(F)cc(F)c1)n2C1CC1
215 to 218 °C	CCn1c(-c2cc(F)ccc2F)nc2c(N)nc(C#CC(C)(C)O)nc21.Cl
194 to 196 °C	CCCn1c(-c2cc(F)ccc2F)nc2c(N)nc(C#CC(C)(C)O)nc21.Cl
207 to 210 °C	CCC(O)(C#Cc1nc(N)c2nc(-c3cc(F)cc(F)c3)n(C)c2n1)CC.Cl
233 to 234 °C	CCn1c(-c2cc(F)cc(F)c2)nc2c(N)nc(C#CC(C)(C)O)nc21.Cl
255 to 258 °C	Cl.Cn1c(-c2cc(F)cc(F)c2)nc2c(N)nc(C#CC3(O)CCCC3)nc21
145 to 148 °C	CCC(O)(C#Cc1nc(N)c2nc(-c3cccc(F)c3)n(C3CC3)c2n1)CC.Cl
245 °C	CC(C)(O)C#Cc1nc(N)c2nc(-c3cc(F)cc(F)c3)n(C3CC3)c2n1.Cl
234 to 235 °C	CCn1c(-c2cc(F)cc(F)c2)nc2c(N)nc(C#CC3(O)CCC3)nc21.Cl
222 to 224 °C	CCn1c(-c2cccc(F)c2F)nc2c(N)nc(C#CC(O)(CC)CC)nc21.Cl

Reference: US6579868B1, “Purine derivatives and adenosine A2 receptor antagonists serving as preventives/remedies for diabetes” (Eisai Co., Ltd., priority 1998, dated 2003)
